Test results: patent US20240400560A1, “BICYCLIC HETEROCYCLIC DERIVATIVE HAVING VIRAL GROWTH INHIBITORY ACTIVITY AND PHARMACEUTICAL COMPOSITION CONTAINING SAME” (Shionogi & Co., Ltd., priority 2021, published 2024)
Like-named read-outs stand apart in the source and are kept apart here.

How the values were obtained:
[1] = system: SARS-CoV-2; assay: Inhibitory activity of cytopathic effect (CPE) in HEK293T/ACE2-TMPRSS2 cells; assay type: cell-based; conditions: Severe acute respiratory syndrome coronavirus 2, HEK-293T, 72 h
[2] = biological target: SARS-CoV-2 3CL protease (Severe acute respiratory syndrome coronavirus 2, UniProt P0DTD1); assay: Inhibitory activity test against SARS-CoV-2 3CL proteases; assay type: biochemical
[3] = HEK293T/ACE2-TMPRSS2 cells, cultured 3 days, CellTiter-Glo 2.0 luminescence, read-out: EC50 (50% SARS-CoV-2 infected cell death inhibitory concentration)
[4] = read-out: IC50 (50% SARS-CoV-2 3CL protease inhibitory concentration)
[5] = read-out: EC50 (50% SARS-CoV-2 infected cell death inhibitory concentration)
[6] = IC50 (50% SARS-CoV-2 3CL protease inhibitory concentration)
[7] = 50% SARS-CoV-2 infected cell death inhibitory concentration, HEK293T/ACE2-TMPRSS2 cells, CellTiter-Glo 2.0 after 3 days culture, read-out: EC50

SMILES	EC50 [1, 3]	IC50 [2, 4]	other results
COc1nc(N2CC[C@@H](OC)C2)cc2c1c(=O)n(-c1cnc3cc(F)ccn13)c(=O)n2Cc1cc(F)c(F)c(F)c1 [Compound I-0731]	< 0.1 µM	< 0.1 µM	–
COc1nc(N2[C@@H]3CC[C@H]2CNC3)cc2c1c(=O)n(-c1cnc3ccc(Cl)cn13)c(=O)n2Cc1cc(Cl)ccc1Cl [Compound I-0649]	–	–	EC50 [1, 5]: < 0.1 µM; IC50 [2, 6]: < 0.1 µM
COc1nc(N2CC[C@@H](C#N)C2)cc2c1c(=O)n(-c1cncc(OC(F)F)c1)c(=O)n2-c1ccc(F)c(Cl)c1 [Compound I-0951]	< 0.1 µM	< 0.1 µM	–
COc1nc2c(=O)n(Cc3ncn(C)n3)c(=O)n(Cc3cc(F)c(F)c(Cl)c3)c2cc1-c1cc(C(C)(C)O)c(F)cc1Cl [Compound I-0816]	< 0.1 µM	< 0.1 µM	–
COc1nc(N2CC[C@@H](F)C2)cc2c1c(=O)n(Cc1ncn(C)n1)c(=O)n2-c1cc(C)c(F)c(Cl)c1 [Compound I-0805]	< 0.1 µM	< 0.1 µM	–
COc1nc(N2C[C@@H](F)[C@@H](F)C2)cc2c1c(=O)n(-c1cnc3cc(F)ccn13)c(=O)n2-c1ccc(F)c(Cl)c1 [Compound I-0747]	< 0.1 µM	< 0.1 µM	–
Cn1cnc(Cn2c(=O)c3c(=O)n(C)c(N4CCC(F)(F)C4)cc3n(Cc3cc(F)c(F)c(Cl)c3)c2=O)n1 [Compound I-0931]	0.1 to 1 µM	< 0.1 µM	–
COc1nc(N2CCC(O)(C(F)(F)F)C2)cc2c1c(=O)n(-c1cncc(Cl)c1)c(=O)n2-c1ccc(F)c(Cl)c1 (centres unmarked) [Compound I-1064]	< 0.1 µM	< 0.1 µM	–
COc1nc(N(C)C)cc2c1c(=O)n(-c1cnc3cc(F)ccn13)c(=O)n2-c1ccc(F)c(Cl)c1 [Compound I-0986]	–	0.0065 µM	EC50 [1, 7]: 0.0071 µM
COc1cc(N2[C@@H]3CC[C@H]2CNC3)cc2c1c(=O)n(-c1cnc3cc(F)ccn13)c(=O)n2Cc1cc(Cl)c(F)cc1C [Compound I-0650]	–	–	EC50 [1]: 0.0273 µM; IC50 [2, 6]: 0.0012 µM
COc1nc(N2CC[C@@H](NC(C)=O)C2)cc2c1c(=O)n(-c1cnc3cc(F)ccn13)c(=O)n2-c1ccc(F)c(Cl)c1 [Compound I-1031]	0.1 to 1 µM	< 0.1 µM	–
[2H]C([2H])([2H])O[C@@H]1CCN(c2cc3c(c(OC)n2)c(=O)n(-c2cncc(C#N)c2)c(=O)n3-c2ccc(F)c(Cl)c2)C1 [Compound I-0948]	< 0.1 µM	< 0.1 µM	–
COc1nc(N2CC[C@@H](CO)C2)cc2c1c(=O)n(-c1cnc3cc(F)ccn13)c(=O)n2-c1ccc(F)c(Cl)c1 [Compound I-0750]	–	0.0061 µM	EC50 [1, 7]: 0.0259 µM
CNC(=O)c1ccc(Cl)c(-c2cc3c(c4c2CCO4)c(=O)n(Cc2ncn(C)n2)c(=O)n3Cc2cc(F)c(F)c(Cl)c2)n1 [Compound I-0870]	< 0.1 µM	< 0.1 µM	–
COc1nc(N2C[C@@H]3C[C@H]2CO3)cc2c1c(=O)n(-c1cnc3cc(F)ccn13)c(=O)n2-c1ccc(F)c(F)c1 [Compound I-0978]	–	0.0048 µM	EC50 [1, 7]: 0.0118 µM
Cn1cnc(Cn2c(=O)c3c(cc(-c4cc(C#N)ccc4Cl)n4nnnc34)n(Cc3cc(F)c(F)c(F)c3)c2=O)n1 [Compound I-0639]	0.1 to 1 µM	< 0.1 µM	–
COc1nc(N2[C@@H]3CC[C@H]2CNC3)cc2c1c(=O)n(-c1cnc3ccc(Cl)cn13)c(=O)n2Cc1cc(F)c(F)c(F)c1 [Compound I-0671]	–	–	EC50 [1]: 0.021 µM; IC50 [2, 6]: 0.0033 µM
Cn1cnc(Cn2c(=O)c3c(F)c(C4CC4)c(-c4cc(C#N)ccc4Cl)cc3n(Cc3cc(F)c(F)c(Cl)c3)c2=O)n1 [Compound I-0638]	< 0.1 µM	< 0.1 µM	–
Cn1cnc(Cn2c(=O)c3c4nccnc4c(-c4cc5c(cc4Cl)NC(=O)C5)cc3n(Cc3cc(F)c(F)c(F)c3)c2=O)n1 [Compound I-0933]	0.1 to 1 µM	< 0.1 µM	–
COc1nc(N2CC[C@@H](CO)C2)cc2c1c(=O)n(-c1cncc(Cl)c1)c(=O)n2-c1ccc(F)c(Cl)c1 [Compound I-0969]	< 0.1 µM	< 0.1 µM	–
COc1ccc(Cl)c(-c2cc3c(nc2OC)c(=O)n(Cc2ncn(C)n2)c(=O)n3Cc2cc(Cl)c(F)cc2C)n1 [Compound I-0821]	–	0.01 µM	EC50 [1, 7]: 0.0376 µM
COc1nc2cc(-c3cc(OC)c4c(=O)n(Cc5ncn(C)n5)c(=O)n(Cc5cc(F)c(F)c(Cl)c5)c4c3)c(Cl)cc2[nH]1 [Compound I-0858]	–	0.0024 µM	EC50 [1, 7]: 0.0441 µM
COc1nc(N2CCC(F)(F)C2)cc2c1c(=O)n(-c1cncc(F)c1)c(=O)n2-c1ccc(F)c(Cl)c1 [Compound I-0998]	< 0.1 µM	< 0.1 µM	–
COc1nc(N2CCC(F)(F)C2)cc2c1c(=O)n(-c1cnc3ccccn13)c(=O)n2-c1ccc(F)c(Cl)c1 [Compound I-0808]	< 0.1 µM	< 0.1 µM	–
COc1nc(N2CC[C@@H](F)C2)cc2c1c(=O)n(Cc1ncn(C)n1)c(=O)n2-c1cc(F)c(Cl)c(Cl)c1 [Compound I-0802]	–	0.024 µM	EC50 [1, 7]: 0.0112 µM

SMILES	EC50 [1, 3]	IC50 [2, 4]	other results
COc1nc(N2CC[C@@H](C(F)F)C2)cc2c1c(=O)n(-c1cnc3cc(F)ccn13)c(=O)n2-c1ccc(F)c(Cl)c1 [Compound I-0983]	< 0.1 µM	< 0.1 µM	–
COc1cc(-c2ncc(F)cc2Cl)cc2c1c(=O)n(Cc1ncn(C)n1)c(=O)n2Cc1cc(F)c(F)c(F)c1 [Compound I-0827]	0.1 to 1 µM	< 0.1 µM	–
COc1nc(N2CC[C@@H](O)C2)cc2c1c(=O)n(-c1cncc(Cl)c1)c(=O)n2-c1ccc(F)c(F)c1 [Compound I-0979]	< 0.1 µM	< 0.1 µM	–
COc1nc(N2CC[C@@H](O)C2)cc2c1c(=O)n(-c1cncc(C(F)F)c1)c(=O)n2-c1ccc(F)c(Cl)c1 [Compound I-0964]	< 0.1 µM	< 0.1 µM	–
COc1nc(N2CC[C@@H](OC(F)F)C2)cc2c1c(=O)n(-c1cnc3cc(F)ccn13)c(=O)n2-c1ccc(F)c(Cl)c1 [Compound I-0763]	< 0.1 µM	< 0.1 µM	–
COc1nc(N2CC[C@@H](C(=O)N(C)C)C2)cc2c1c(=O)n(-c1cnc3cc(F)ccn13)c(=O)n2-c1ccc(F)c(Cl)c1 [Compound I-1045]	< 0.1 µM	< 0.1 µM	–
COc1nc(N2[C@@H]3CC[C@H]2CNC3)cc2c1c(=O)n(-c1cnc3cc(F)c(Cl)cn13)c(=O)n2-c1ccc(F)c(Cl)c1 [Compound I-0950]	–	–	EC50 [1, 5]: < 0.1 µM; IC50 [2, 6]: < 0.1 µM
[2H]C([2H])([2H])O[C@@H]1CCN(c2cc3c(c(OC)n2)c(=O)n(-c2cncc(F)c2)c(=O)n3-c2ccc(F)c(F)c2)C1 [Compound I-1028]	< 0.1 µM	< 0.1 µM	–
COc1nc(N(C)CC(F)(F)F)cc2c1c(=O)n(-c1cnc3cc(F)ccn13)c(=O)n2-c1ccc(F)c(Cl)c1 [Compound I-1006]	< 0.1 µM	< 0.1 µM	–
COc1nc(N2CC[C@@H](F)C2)cc2c1c(=O)n(-c1cnc3cc(F)ccn13)c(=O)n2-c1ccc(F)c(F)c1 [Compound I-0982]	< 0.1 µM	< 0.1 µM	–
COc1nc2c(=O)n(Cc3ncn(C)n3)c(=O)n(Cc3cc(Cl)c(F)cc3Cl)c2cc1-c1cc(C#N)ccc1Cl [Compound I-0551]	< 0.1 µM	< 0.1 µM	–
[2H]C([2H])([2H])O[C@@H]1CCN(c2cc3c(c(OC)n2)c(=O)n(-c2cnc4cc(F)ccn24)c(=O)n3-c2ccc(F)c(Cl)c2)C1 [Compound I-0751]	< 0.1 µM	< 0.1 µM	–
COc1cc(-c2cc3c(C#N)c[nH]c3cc2Cl)cc2c1c(=O)n(Cc1ncn(C)n1)c(=O)n2Cc1cc(F)c(F)c(F)c1 [Compound I-0902]	–	0.0082 µM	EC50 [1, 7]: 0.104 µM
COc1cc(-c2cc(C3(O)CC3)ccc2Cl)cc2c1c(=O)n(Cc1ncn(C)n1)c(=O)n2Cc1cc(F)c(F)c(F)c1 [Compound I-0546]	< 0.1 µM	< 0.1 µM	–
Cn1cnc(Cn2c(=O)c3c4c(c(N5CCC(F)(F)C5)cc3n(Cc3cc(F)c(F)c(Cl)c3)c2=O)CCO4)n1 [Compound I-0814]	< 0.1 µM	< 0.1 µM	–
COC[C@@H](C)Nc1cc2c(c(OC)n1)c(=O)n(-c1cnc3cc(F)ccn13)c(=O)n2-c1ccc(F)c(Cl)c1 [Compound I-1061]	< 0.1 µM	< 0.1 µM	–
COc1nc(N2[C@@H]3CC[C@H]2CNC3)cc2c1c(=O)n(-c1cnc3cc(F)ccn13)c(=O)n2-c1ccc(F)c(Cl)c1 [Compound I-0729]	–	–	EC50 [1, 5]: < 0.1 µM; IC50 [2, 6]: < 0.1 µM
O=c1c2c(=O)n(-c3cnc4cc(F)ccn34)c(=O)n(-c3ccc(F)c(Cl)c3)c2cc2n1CC[C@H]1CCCN21 [Compound I-1051]	0.1 to 1 µM	< 0.1 µM	–
COc1nc(N2C[C@@H]3[C@H](C2)C3(F)F)cc2c1c(=O)n(-c1cnc3cc(F)ccn13)c(=O)n2-c1ccc(F)c(Cl)c1 [Compound I-0759]	< 0.1 µM	< 0.1 µM	–
COc1nc(-c2cc(C#N)ccc2Cl)cc2c1c(=O)n(-c1cnc3cc(F)ccn13)c(=O)n2Cc1cc(F)c(F)c(F)c1 [Compound I-0672]	< 0.1 µM	< 0.1 µM	–
COc1nc(N2CC[C@@H](O)C2)cc2c1c(=O)n(-c1cncc(F)c1)c(=O)n2-c1ccc(F)c(Cl)c1 [Compound I-0965]	< 0.1 µM	< 0.1 µM	–
COc1nc(N2CC[C@@H](O)C2)cc2c1c(=O)n(-c1cncc(C#N)c1)c(=O)n2-c1ccc(F)c(Cl)c1 [Compound I-0957]	–	0.0032 µM	EC50 [1, 7]: 0.00814 µM
[2H]C([2H])([2H])O[C@@H]1CCN(c2cc3c(c(OC)n2)c(=O)n(-c2cnc4cc(F)ccn24)c(=O)n3-c2ccc(F)c(F)c2)C1 [Compound I-1005]	–	0.0089 µM	EC50 [1, 7]: 0.00865 µM
Cn1cnc(Cn2c(=O)c3c4nc[nH]c4c(-c4cc(C#N)ccc4Cl)cc3n(Cc3cc(F)c(F)c(F)c3)c2=O)n1 [Compound I-0712]	0.1 to 1 µM	0.1 to 1 µM	–
